Experimental data from ChEMBL document CHEMBL3885861, “Open TG-GATES”.

Species on record: Rattus norvegicus
Test: Open TG-GATES - Regimen: Single
Format: toxicity, organism-based, Sprague-Dawley
Parameters: regimen Single, gender Male, age 6 weeks
Details: in vivo, po, 30 mg/kg, route gavage, dose level Middle; for APTT / Bas / Eos / Fbg / Hb / Ht / Lym / MCH / MCHC / MCV / Mono / Neu / PT / Plat / RBC / Ret / WBC: tissue Blood; for A/G / ALP / ALT / AST / BUN / CRE / Ca / Cl / DBIL / GLC / IP / K / LDH / Na / PL / RALB / TBIL / TC / TG / TP / gamma-GTP: tissue Plasma

Cn1cc[nH]c1=S [METHIMAZOLE]
TERMINAL_BW (3 h): 210.9 g
APTT (3 h): 22.2 s
Bas (3 h): 0%
Eos (3 h): 1%
Fbg (3 h): 305 mg/dL
Hb (3 h): 14.3 g/dL
Ht (3 h): 40.3%
Lym (3 h): 73.2%
MCH (3 h): 21.7 pg
MCHC (3 h): 35.4%
MCV (3 h): 61.4 fL
Mono (3 h): 3%
Neu (3 h): 21.8%
PT (3 h): 15.9 s
Plat (3 h): 120.3 x10_4/uL
RBC (3 h): 657.4 x10_4/ul
Ret (3 h): 8%
WBC (3 h): 65.4 x10_2/uL
A/G (3 h): 1.1
ALP (3 h): 1707.8 IU/L
ALT (3 h): 42.8 IU/L
AST (3 h): 72.2 IU/L
BUN (3 h): 10.4 mg/dL
CRE (3 h): 0.1 mg/dL
Ca (3 h): 10.7 mg/dL
Cl (3 h): 105 meq/L
DBIL (3 h): 0 mg/dL
GLC (3 h): 186.4 mg/dL
IP (3 h): 10.1 mg/dL
K (3 h): 4.3 meq/L
LDH (3 h): 250.2 IU/L
Na (3 h): 141.6 meq/L
PL (3 h): 146 mg/dL
RALB (3 h): 2.9 g/dL
TBIL (3 h): 0.006 mg/dL
TC (3 h): 82.4 mg/dL
TG (3 h): 64.4 mg/dL
TP (3 h): 5.7 g/dL
gamma-GTP (3 h): 1 IU/L
TERMINAL_BW (6 h): 208.1 g
APTT (6 h): 22.7 s
Bas (6 h): 0%
Eos (6 h): 1%
Fbg (6 h): 316.8 mg/dL
Hb (6 h): 14 g/dL
Ht (6 h): 40%
Lym (6 h): 73.6%
MCH (6 h): 22 pg
MCHC (6 h): 35%
MCV (6 h): 62.7 fL
Mono (6 h): 2.8%
Neu (6 h): 21.8%
PT (6 h): 16.2 s
Plat (6 h): 123.7 x10_4/uL
RBC (6 h): 637.2 x10_4/ul
Ret (6 h): 8.4%
WBC (6 h): 68.1 x10_2/uL
A/G (6 h): 1.2
ALP (6 h): 1225.2 IU/L
ALT (6 h): 46.2 IU/L
AST (6 h): 71.8 IU/L
BUN (6 h): 11.8 mg/dL
CRE (6 h): 0.1 mg/dL
Ca (6 h): 10.6 mg/dL
Cl (6 h): 103.4 meq/L
DBIL (6 h): 0.002 mg/dL
GLC (6 h): 196.2 mg/dL
IP (6 h): 9.4 mg/dL
K (6 h): 4.2 meq/L
LDH (6 h): 329.8 IU/L
Na (6 h): 140.4 meq/L
PL (6 h): 141.2 mg/dL
RALB (6 h): 2.9 g/dL
TBIL (6 h): 0.01 mg/dL
TC (6 h): 79.8 mg/dL
TG (6 h): 45 mg/dL
TP (6 h): 5.5 g/dL
gamma-GTP (6 h): 1 IU/L
TERMINAL_BW (9 h): 205.3 g
APTT (9 h): 22.1 s
Bas (9 h): 0%
Eos (9 h): 1.2%
Fbg (9 h): 299.8 mg/dL
Hb (9 h): 13.7 g/dL
Ht (9 h): 38.8%
Lym (9 h): 75.4%
MCH (9 h): 21.5 pg
MCHC (9 h): 35.4%
MCV (9 h): 60.8 fL
Mono (9 h): 2.4%
Neu (9 h): 20.2%
PT (9 h): 15.7 s
Plat (9 h): 121.8 x10_4/uL
RBC (9 h): 640 x10_4/ul
Ret (9 h): 8.1%
WBC (9 h): 70 x10_2/uL
A/G (9 h): 1.2
ALP (9 h): 1422 IU/L
ALT (9 h): 43.8 IU/L
AST (9 h): 71.4 IU/L
BUN (9 h): 12.8 mg/dL
CRE (9 h): 0.1 mg/dL
Ca (9 h): 10.5 mg/dL
Cl (9 h): 105.2 meq/L
DBIL (9 h): 0.004 mg/dL
GLC (9 h): 198 mg/dL
IP (9 h): 8.7 mg/dL
K (9 h): 3.8 meq/L
LDH (9 h): 353.6 IU/L
Na (9 h): 140.6 meq/L
PL (9 h): 155.8 mg/dL
RALB (9 h): 3 g/dL
TBIL (9 h): 0.012 mg/dL
TC (9 h): 85.4 mg/dL
TG (9 h): 81 mg/dL
TP (9 h): 5.6 g/dL
gamma-GTP (9 h): 1 IU/L
TERMINAL_BW (24 h): 212.4 g
APTT (24 h): 21 s
Bas (24 h): 0%
Eos (24 h): 1%
Fbg (24 h): 320.4 mg/dL
Hb (24 h): 13.9 g/dL
Ht (24 h): 39.6%
Lym (24 h): 76.6%
MCH (24 h): 21.8 pg
MCHC (24 h): 35.2%
MCV (24 h): 62 fL
Mono (24 h): 2.4%
Neu (24 h): 19%
PT (24 h): 16.3 s
Plat (24 h): 115.8 x10_4/uL
RBC (24 h): 640 x10_4/ul
Ret (24 h): 7.8%
WBC (24 h): 84 x10_2/uL
A/G (24 h): 1.1
ALP (24 h): 1634.4 IU/L
ALT (24 h): 42.4 IU/L
AST (24 h): 64.6 IU/L
BUN (24 h): 15.4 mg/dL
CRE (24 h): 0.1 mg/dL
Ca (24 h): 10.7 mg/dL
Cl (24 h): 106 meq/L
DBIL (24 h): 0 mg/dL
GLC (24 h): 180.6 mg/dL
IP (24 h): 7 mg/dL
K (24 h): 4.4 meq/L
LDH (24 h): 211.4 IU/L
Na (24 h): 141.6 meq/L
PL (24 h): 158.6 mg/dL
RALB (24 h): 3 g/dL
TBIL (24 h): 0.002 mg/dL
TC (24 h): 84.6 mg/dL
TG (24 h): 131.4 mg/dL
TP (24 h): 5.6 g/dL
gamma-GTP (24 h): 1 IU/L
